Source: ChEMBL document CHEMBL3714723, “Thiazole and oxazole-substituted arylamides as P2X3 and P2X2/3 antagonists” (2010)
The source made the active and inactive calls. No rule for the calls is given here.

What follows are compounds tested against T1, P2X purinoceptor 3 (Rattus norvegicus) (UniProt P49654) (assay: Antagonist activity against rat P2X3 receptor expressed in CHOK1 cells assessed as inhibition of alpha,beta-meATP-induced calcium response incubated for 20 mins by Fluo-3AM dye based FLIPR assay). Conditions: CHO-K1.
T1 sequence (whole entry): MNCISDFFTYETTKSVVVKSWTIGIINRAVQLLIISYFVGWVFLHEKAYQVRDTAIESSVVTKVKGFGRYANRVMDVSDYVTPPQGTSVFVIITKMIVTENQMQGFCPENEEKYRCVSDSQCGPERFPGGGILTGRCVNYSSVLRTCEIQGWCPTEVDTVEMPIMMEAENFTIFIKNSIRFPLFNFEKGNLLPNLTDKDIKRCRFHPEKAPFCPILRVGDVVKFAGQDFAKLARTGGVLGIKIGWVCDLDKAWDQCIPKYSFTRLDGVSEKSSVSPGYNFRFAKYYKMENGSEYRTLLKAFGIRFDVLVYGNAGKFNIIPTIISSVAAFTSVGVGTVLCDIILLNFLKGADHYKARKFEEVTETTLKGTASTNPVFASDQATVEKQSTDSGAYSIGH
Assay type: functional, cell-based

Antagonist activity call (active/inactive), active:
Cc1ccc(-c2cc(C(=O)NC(C)CN(C)C)cc(-c3nccs3)c2)cc1 (stereo not given), COCC(C)NC(=O)c1cc(-c2ccc(C)cc2)cc(-c2ncc(C(=O)N(C)C)s2)c1 (stereo not given), COCC(C)NC(=O)c1cc(-c2ccc(C)cc2)cc(-c2ccns2)c1 (stereo not given), COCC(C)NC(=O)c1cc(-c2ccc(C)cc2)cc(-c2cnco2)c1 (stereo not given), CCc1ncsc1-c1cc(C(=O)NCc2cnc(C)cn2)cc(-c2ccc(C)cc2)c1, COCC(C)NC(=O)c1cc(-c2ccc(C)cc2)cc(-c2cncs2)c1 (stereo not given), COCC(C)NC(=O)c1cc(-c2ccc(C)cc2)cc(-c2scnc2C)c1 (stereo not given), Cc1ccc(-c2cc(C(=O)N[C@H](C)CN3CCN(S(C)(=O)=O)CC3)cc(-c3cncs3)c2)c(F)c1, CCCc1ncoc1-c1cc(C(=O)NCc2cnc(C)cn2)cc(-c2ccc(C)cn2)c1, COCC(C)NC(=O)c1cc(-c2ccc(C)cc2)cc(-c2ncc(C(=O)NC(C)C)s2)c1 (stereo not given), CC(=O)N1CCN(C[C@@H](C)NC(=O)c2cc(-c3ccc(C)cc3)cc(-c3cncs3)c2)CC1, Cc1ccc(-c2cc(C(=O)NCCOCCO)cc(-c3nccs3)c2)cc1, Cc1ccc(-c2cc(C(=O)NC(C)c3cnccn3)cc(-c3cncs3)c2)cc1 (stereo not given), COCC(C)NC(=O)c1cc(-c2ccc(C)cc2)cc(-c2oncc2C)c1 (stereo not given), COC[C@@H](C)NC(=O)c1cc(-c2ccc(C)cc2)cc(-c2scnc2C)c1, CCC(C)(C)NC(=O)c1cc(-c2ccc(C)cc2)cc(-c2nccs2)c1, Cc1ccc(-c2cc(C(=O)NC(C)c3ccco3)cc(-c3nccs3)c2)cc1 (stereo not given), Cc1ccc(-c2cc(C(=O)NC(C)c3cnccn3)cc(-c3nccs3)c2)c(F)c1 (stereo not given), Cc1ccc(-c2cc(C(=O)N[C@@H](C)CO)cc(-c3scnc3C(C)C)c2)nc1, Cc1ccc(-c2cc(C(=O)N[C@H](C)CO)cc(-c3nccs3)c2)cc1, Cc1ccc(-c2cc(C(=O)NC(C)c3cnccn3)cc(-c3nccs3)c2)cc1 (stereo not given), Cc1ccc(-c2cc(C(=O)N[C@H](C)CN3CCN(S(C)(=O)=O)CC3)cc(-c3cncs3)c2)cc1, Cc1ccc(-c2cc(C(=O)N[C@H](C)CN3CCOCC3)cc(-c3nccs3)c2)c(F)c1, Cc1ccc(-c2cc(C(=O)N[C@H](C)CN3CCN(S(C)(=O)=O)CC3)cc(-c3nccs3)c2)c(F)c1, C[C@H](CN1CCN(S(C)(=O)=O)CC1)NC(=O)c1cc(-c2cncs2)cc(-c2ccc(F)cc2Cl)c1, CC(=O)N1CCN(C[C@@H](C)NC(=O)c2cc(-c3nccs3)cc(-c3ccc(C)cc3F)c2)CC1, C[C@H](CN1CCN(S(C)(=O)=O)CC1)NC(=O)c1cc(-c2nccs2)cc(-c2ccc(F)cc2Cl)c1, CCC(C)NC(=O)c1cc(-c2ccc(C)cc2)cc(-c2nccs2)c1 (stereo not given), CC(=O)N1CCN(C[C@@H](C)NC(=O)c2cc(-c3ccc(C)cc3)cc(-c3nccs3)c2)CC1, Cc1ccc(-c2cc(C(=O)NC(C)(C)c3ccccc3)cc(-c3nccs3)c2)cc1, Cc1ccc(-c2cc(C(=O)N[C@H](C)CN3CCS(=O)(=O)CC3)cc(-c3scnc3C)c2)cc1, COCC(C)NC(=O)c1cc(-c2ccc(C)cc2)cc(-c2ccno2)c1 (stereo not given), Cc1ccc(-c2cc(C(=O)N[C@H](C)CN3CCN(S(C)(=O)=O)CC3)cc(-c3nccs3)c2)cc1, COCC(C)NC(=O)c1cc(-c2ccc(C)cc2)cc(-c2ncco2)c1 (stereo not given), C[C@H](CN1CCOCC1)NC(=O)c1cc(-c2nccs2)cc(-c2ccc(F)cc2Cl)c1, Cc1ccc(-c2cc(C(=O)NC(C)c3cnccn3)cc(-c3scnc3C)c2)cc1 (stereo not given), C[C@H](CN1CCOCC1)NC(=O)c1cc(-c2cncs2)cc(-c2ccc(F)cc2Cl)c1, COCC(C)NC(=O)c1cc(-c2ccc(C)cc2)cc(-c2nc3ccccc3s2)c1 (stereo not given), COCC(C)NC(=O)c1cc(-c2ccc(C)cc2)cc(-c2cocn2)c1 (stereo not given), COCC(C)NC(=O)c1cc(-c2cncs2)cc(-c2ccc(F)cc2Cl)c1 (stereo not given), CC(=O)N1CCN(C[C@@H](C)NC(=O)c2cc(-c3ccc(C)cc3)cc(-c3scnc3C)c2)CC1, Cc1ccc(-c2cc(C(=O)N[C@H](C)CN3CCOCC3)cc(-c3scnc3C)c2)cc1, COCC(C)NC(=O)c1cc(-c2ccc(C)cc2)cc(-c2nccs2)c1 (stereo not given), Cc1ccc(-c2cc(C(=O)N[C@H](C)CN3CCOCC3)cc(-c3cncs3)c2)cc1, Cc1ccc(-c2cc(C(=O)N[C@H](C)CO)cc(-c3nccs3)c2)c(F)c1, COC[C@H](C)NC(=O)c1cc(-c2ccc(C)cc2)cc(-c2scnc2C)c1, Cc1ccc(-c2cc(C(=O)N[C@H](C)CN3CCOCC3)cc(-c3nccs3)c2)cc1, Cc1ccc(-c2cc(C(=O)NCc3ccc(C)nn3)cc(-c3ncsc3C(C)C)c2)nc1, Cc1ccc(-c2cc(C(=O)NCc3ccc(C)nn3)cc(-c3scnc3C(C)C)c2)nc1, CCOC(=O)c1cnc(-c2cc(C(=O)NC(C)COC)cc(-c3ccc(C)cc3)c2)s1 (stereo not given), COCC(C)NC(=O)c1cc(-c2ccc(C)cc2)cc(-c2cscn2)c1 (stereo not given), Cc1ccc(-c2cc(C(=O)NC(C)CO)cc(-c3scnc3C)c2)cc1 (stereo not given), CNC(=O)c1cnc(-c2cc(C(=O)NC(C)COC)cc(-c3ccc(C)cc3)c2)s1 (stereo not given), COc1ccc([C@@H](C)NC(=O)c2cc(-c3ccc(C)cc3)cc(-c3nccs3)c2)cc1, COCC(C)NC(=O)c1cc(-c2cncs2)cc(-c2ccc(F)cc2F)c1 (stereo not given)
